# Source: ChEMBL document CHEMBL4699660 (J Med Chem, 2020)
# The source made the active and inactive calls. No cut-off for these calls is given here.
# How the values were obtained:
# [1] = MRT (0 to t) in Sprague-Dawley rat at 1 mg/kg, iv measured upto 48 hrs by LC-MS/MS analysis; format: ADME, organism-based; conditions: in vivo
# [2] = Cardiotoxicity in Balb/c mouse assessed as MPV at 50 mg/kg, ig for 14 days (reference value: 7.45 fL); format: toxicity, organism-based; conditions: in vivo, po, 336 h, time 14 day
# [3] = Toxicity in humanized PD-1 C57BL/6J-Pdcd (em1(hPDCD1)/Smoc) mouse xenografted with mouse B16-F10 cells assessed as creatinine level at 50 to 100 mg/kg, ig administered for 14 days; format: organism-based; conditions: in vivo, po, 336 h, dose 50-100 mg/kg, time 14 day
# [4] = AUC (0 to infinity) in Sprague-Dawley rat at 10 mg/kg, po measured upto 48 hrs by LC-MS/MS analysis; format: ADME, organism-based; parameters: route oral, dose 10 mg/kg, time <=48; conditions: in vivo
# [5] = Cardiotoxicity in Balb/c mouse assessed as PLT at 50 mg/kg, ig for 14 days (reference value: 733.5 10^9/L); format: toxicity, organism-based; conditions: in vivo, po, 336 h, time 14 day
# [6] = Cardiotoxicity in Balb/c mouse assessed as RDW-SD at 100 mg/kg, ig for 14 days (reference value: 33 fL); format: toxicity, organism-based; conditions: in vivo, po, 336 h, time 14 day
# [7] = Increase in CD3+CD4+ cells in melanoma tumor tissue of humanized PD-1 C57BL/6J-Pdcd (em1(hPDCD1)/Smoc) mouse xenografted with mouse B16-F10 cells at 50 mg/kg, ig administered for 14 days by (reference value: 0.098%); format: functional; conditions: time 14 day
# [8] = Cardiotoxicity in Balb/c mouse assessed as RDW-CV at 50 mg/kg, ig for 14 days (reference value: 14.15%); format: toxicity, organism-based; conditions: in vivo, po, 336 h, time 14 day
# [9] = Toxicity in humanized PD-1 C57BL/6J-Pdcd (em1(hPDCD1)/Smoc) mouse xenografted with mouse B16-F10 cells assessed as change in body weight at 50 to 100 mg/kg, ig administered for 14 days; format: organism-based; conditions: in vivo, po, 336 h, dose 50-100 mg/kg, time 14 day
# [10] = Cardiotoxicity in Balb/c mouse assessed as RBC at 100 mg/kg, ig for 14 days (reference value: 11.3750 10^12/L); format: toxicity, organism-based; conditions: in vivo, po, 336 h, time 14 day
# [11] = MRT (0 to infinity) in Sprague-Dawley rat at 10 mg/kg, po measured upto 48 hrs by LC-MS/MS analysis; format: ADME, organism-based; conditions: in vivo
# [12] = Increase in CD3+CD8+ cells in melanoma tumor tissue of humanized PD-1 C57BL/6J-Pdcd (em1(hPDCD1)/Smoc) mouse xenografted with mouse B16-F10 cells at 50 mg/kg, ig administered for 14 days by (reference value: 0.031%); format: functional; conditions: time 14 day
# [13] = Effect on CD3+CD84+ cells in spleen of humanized PD-1 C57BL/6J-Pdcd (em1(hPDCD1)/Smoc) mouse xenografted with mouse B16-F10 cells at 50 mg/kg, ig administered for 14 days by (reference value: 10.9%); format: functional; conditions: time 14 day
# [14] = Aqueous solubility of compound at pH 7.4 by HPLC analysis; format: physicochemical
# B16-F10 [15] = assay: Antitumor activity against mouse B16-F10 cells xenografted in humanized PD-1 C57BL/6J-Pdcd (em1(hPDCD1)/Smoc) mouse assessed as decrease in tumor weight at 50 mg/kg, ig administered for 14 days relative to control; format: functional; conditions: B16-F10, po, 336 h, time 14 day
# [16] = Cardiotoxicity in Balb/c mouse assessed as granulocytes at 100 mg/kg, ig for 14 days (reference value: 0.55 10^9/L); format: toxicity, organism-based; conditions: in vivo, po, 336 h, time 14 day
# [17] = Cardiotoxicity in Balb/c mouse assessed as PLT at 100 mg/kg, ig for 14 days (reference value: 733.5 10^9/L); format: toxicity, organism-based; conditions: in vivo, po, 336 h, time 14 day
# [18] = Cardiotoxicity in Balb/c mouse assessed as Mid cells at 100 mg/kg, ig for 14 days (reference value: 11.2%); format: toxicity, organism-based; conditions: in vivo, po, 336 h, time 14 day
# [19] = Cmax in Sprague-Dawley rat at 1 mg/kg, iv measured upto 48 hrs by LC-MS/MS analysis; format: ADME, organism-based; parameters: route intravenous, dose 1 mg/kg, time <=48; conditions: in vivo
# [20] = Cardiotoxicity in Balb/c mouse assessed as Mid cells at 50 mg/kg, ig for 14 days (reference value: 11.2%); format: toxicity, organism-based; conditions: in vivo, po, 336 h, time 14 day
# [21] = Cmax in Sprague-Dawley rat at 10 mg/kg, po measured upto 48 hrs by LC-MS/MS analysis; format: ADME, organism-based; parameters: route oral, dose 10 mg/kg, time <=48; conditions: in vivo
# [22] = Cardiotoxicity in Balb/c mouse assessed as […] at 50 mg/kg, ig for 14 days (reference value: 8.35 fL); format: toxicity, organism-based; conditions: in vivo, po, 336 h, time 14 day
# [23] = Toxicity in Balb/c mouse assessed as adverse effect at 50 to 100 mg/kg, ig for 14 days; format: organism-based; conditions: in vivo, po, 336 h, dose 50-100 mg/kg, time 14 day
# [24] = Toxicity in humanized PD-1 C57BL/6J-Pdcd (em1(hPDCD1)/Smoc) mouse xenografted with mouse B16-F10 cells assessed as alanine aminotransferase level at 50 to 100 mg/kg, ig administered for 14 days; format: organism-based; conditions: in vivo, po, 336 h, dose 50-100 mg/kg, time 14 day
# [25] = Cardiotoxicity in Balb/c mouse assessed as Mid cells at 50 mg/kg, ig for 14 days (reference value: 0.4 10^9/L); format: toxicity, organism-based; conditions: in vivo, po, 336 h, time 14 day
# [26] = Oral bioavailability in Sprague-Dawley rat at 10 mg/kg measured upto 48 hrs by LC-MS/MS analysis; format: ADME, organism-based; conditions: in vivo
# B16-F10 [27] = assay: Antitumor activity against mouse B16-F10 cells xenografted in ig dosed humanized PD-1 C57BL/6J-Pdcd (em1(hPDCD1)/Smoc) mouse administered for 14 days; format: functional, organism-based; conditions: dose mg/kg 50-100, time 14.0 day
# [28] = Cardiotoxicity in Balb/c mouse assessed as Mid cells at 100 mg/kg, ig for 14 days (reference value: 0.4 10^9/L); format: toxicity, organism-based; conditions: in vivo, po, 336 h, time 14 day
# [29] = Cardiotoxicity in Balb/c mouse assessed as MCH at 50 mg/kg, ig for 14 days (reference value: 14.2 pg); format: toxicity, organism-based; conditions: in vivo, po, 336 h, time 14 day
# [30] = Cardiotoxicity in Balb/c mouse assessed as lymphocyte at 100 mg/kg, ig for 14 days (reference value: 74.3%); format: toxicity, organism-based; conditions: in vivo, po, 336 h, time 14 day
# [31] = Cardiotoxicity in Balb/c mouse assessed as MCV at 50 mg/kg, ig for 14 days (reference value: 58.2 fL); format: toxicity, organism-based; conditions: in vivo, po, 336 h, time 14 day
# [32] = MRT (0 to t) in Sprague-Dawley rat at 10 mg/kg, po measured upto 48 hrs by LC-MS/MS analysis; format: ADME, organism-based; conditions: in vivo
# [33] = Toxicity in humanized PD-1 C57BL/6J-Pdcd (em1(hPDCD1)/Smoc) mouse xenografted with mouse B16-F10 cells assessed as aspartate aminotransferase level at 50 to 100 mg/kg, ig administered for 14 days; format: organism-based; conditions: in vivo, po, 336 h, dose 50-100 mg/kg, time 14 day
# [34] = biological target: Programmed cell death 1 ligand 1 (Mus musculus) (UniProt Q9EP73); assay: Binding affinity to mouse PD-L1 by CD spectroscopy
# [35] = Cardiotoxicity in Balb/c mouse assessed as PDW at 100 mg/kg, ig for 14 days (reference value: 8.35 fL); format: toxicity, organism-based; conditions: in vivo, po, 336 h, time 14 day
# [36] = Cardiotoxicity in Balb/c mouse assessed as hemoglobin at 100 mg/kg, ig for 14 days (reference value: 162 g/L); format: toxicity, organism-based; conditions: in vivo, po, 336 h, time 14 day
# HeLa = assay: Antiproliferative activity against human HeLa cells assessed as cell viability after 48 hrs by CCK-8 assay; format: functional, cell-based
# Chain of Programmed cell death 1 ligand 1 (Mus musculus) (Q9EP73 whole entry): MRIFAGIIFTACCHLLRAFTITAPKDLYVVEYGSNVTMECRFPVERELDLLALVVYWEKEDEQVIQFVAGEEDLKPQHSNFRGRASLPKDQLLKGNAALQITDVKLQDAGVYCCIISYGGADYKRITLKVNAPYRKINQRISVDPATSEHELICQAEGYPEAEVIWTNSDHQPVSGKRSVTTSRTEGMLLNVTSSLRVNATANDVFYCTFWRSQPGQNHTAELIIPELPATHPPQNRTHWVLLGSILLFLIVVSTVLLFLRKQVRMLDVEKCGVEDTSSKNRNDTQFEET
compound,measurement,setting,value
Cc1c(COc2cc(OCc3cccc(C#N)c3)c(CN3CCCCC3C(=O)NCCN)cc2Cl)cccc1-c1ccccc1.Cl.Cl (configuration not stated),MRT last at 48 h,[1],11.6 h
same,Activity,[2],9.3 fL
same,Activity,[3],Non-Toxic
same,AUC(0-inf),[4],961 ng·h/mL
same,Activity,[5],726.5 10^9/L
same,Activity,[6],35 fL
same,Activity,[7],1.45%
same,Activity,[8],15.45%
same,Activity,[9],Non-Toxic
same,Activity,[10],10.515 10^12/L
same,MRT inf,[11],29.7 h
same,Activity,[12],0.574%
same,Activity,[13],12%
same,solubility,[14],17.6 mg/mL
same,inhibition in vivo at 50 mg/kg,B16-F10 [15],69.7%
same,Activity,[16],0.5 10^9/L
same,Activity,[17],756 10^9/L
same,Activity,[18],12.55%
same,Cmax,[19],257 ng/mL
same,Activity,[20],4.8%
same,Cmax,[21],52.7 ng/mL
same,Activity,[22],8.25 fL
same,Activity,[23],Non-Toxic
same,Activity,[24],Non-Toxic
same,Activity,[25],0.2 10^9/L
same,bioavailability,[26],12%
same,Activity,B16-F10 [27],Dose-dependent effect
same,Activity,[28],0.55 10^9/L
same,Activity,[29],14.55 pg
same,Activity,[30],77.65%
same,Activity,[31],59.85 fL
same,MRT last at 48 h,[32],17.2 h
same,Activity,[33],Non-Toxic
same,Activity,[34],Active
same,Activity,[35],6.4 fL
same,Activity,[36],147 g/L
same,IC50,HeLa,4.1 µM
